Experimental data published in patent US20230346777A1, “USE OF SGC ACTIVATORS FOR THE TREATMENT OF OPHTHALMOLOGIC DISEASES” (Bayer Aktiengesellschaft, priority 2020, published 2023).
Entries after “also recorded” stand apart in the source; their conditions may differ. Where a name gives a salt, the structure may show the parent alone.

Key:
[1] = target: T1, recombinant guanylate cyclase reporter cell line (Rattus norvegicus, UniProt P20595); assay: Effect on a recombinant guanylate cyclase reporter cell line; type: cell-based
T1 construct: expressed in transfected cells; CHO by own knowledge of the cited Wunder et al. 2005
T1 sequence (P20595 1-619): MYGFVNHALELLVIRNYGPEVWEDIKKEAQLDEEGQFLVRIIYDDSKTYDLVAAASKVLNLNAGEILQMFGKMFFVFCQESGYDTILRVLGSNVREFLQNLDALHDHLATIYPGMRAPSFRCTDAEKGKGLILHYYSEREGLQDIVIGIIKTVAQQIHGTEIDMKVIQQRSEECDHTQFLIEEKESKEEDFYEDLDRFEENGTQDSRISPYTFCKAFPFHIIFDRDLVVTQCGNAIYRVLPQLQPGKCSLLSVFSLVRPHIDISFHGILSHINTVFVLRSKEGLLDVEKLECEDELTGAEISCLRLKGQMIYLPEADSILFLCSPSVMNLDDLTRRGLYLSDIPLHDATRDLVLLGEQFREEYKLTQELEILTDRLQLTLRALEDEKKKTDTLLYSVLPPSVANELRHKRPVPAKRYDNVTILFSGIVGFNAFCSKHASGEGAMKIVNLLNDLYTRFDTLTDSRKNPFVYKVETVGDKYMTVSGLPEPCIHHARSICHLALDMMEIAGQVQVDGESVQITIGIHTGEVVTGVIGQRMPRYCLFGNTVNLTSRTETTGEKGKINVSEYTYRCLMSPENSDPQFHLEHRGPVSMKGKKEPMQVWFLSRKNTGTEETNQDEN
T1 sequence (P19686 1-690 partner): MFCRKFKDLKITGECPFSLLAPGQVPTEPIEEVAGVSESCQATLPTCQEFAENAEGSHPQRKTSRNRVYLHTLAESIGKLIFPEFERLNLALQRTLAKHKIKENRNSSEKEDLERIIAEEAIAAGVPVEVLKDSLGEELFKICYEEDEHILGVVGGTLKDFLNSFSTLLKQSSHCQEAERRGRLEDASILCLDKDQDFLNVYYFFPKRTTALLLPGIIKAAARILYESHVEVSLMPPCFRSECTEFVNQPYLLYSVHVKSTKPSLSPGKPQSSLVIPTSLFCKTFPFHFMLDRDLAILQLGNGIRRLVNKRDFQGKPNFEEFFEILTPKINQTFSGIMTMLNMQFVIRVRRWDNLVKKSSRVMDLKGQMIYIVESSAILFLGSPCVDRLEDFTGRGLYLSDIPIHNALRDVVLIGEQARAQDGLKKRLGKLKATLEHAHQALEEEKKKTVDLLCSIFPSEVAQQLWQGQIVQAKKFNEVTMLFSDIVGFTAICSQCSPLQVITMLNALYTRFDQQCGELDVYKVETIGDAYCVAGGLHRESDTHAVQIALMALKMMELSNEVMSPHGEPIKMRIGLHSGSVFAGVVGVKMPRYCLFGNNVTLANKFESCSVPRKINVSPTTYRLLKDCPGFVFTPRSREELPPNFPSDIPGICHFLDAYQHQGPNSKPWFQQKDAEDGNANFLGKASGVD
Method: B-1. Effect on a Recombinant Guanylate Cyclase Reporter Cell Line
The cellular activity of the compounds according to the invention was determined using a recombinant guanylate cyclase reporter cell line, as described in F. Wunder et al., Anal. Biochem. 339, 104-112 (2005).

[2] = system: retinal ischemia reperfusion (I/R) in rat; assay: Sub-chronic changes in rat retinal structure after retinal ischemia reperfusion (I/R), therapeutic and prophylactic settings; type: in vivo, male Wistar Unilever rats; conditions: for IPL (inner plexiform layer) thickness: H&E sections
Source text: B-8 Evaluation of Sub-Chronic Changes in Rat Retinal Structure after Retinal Ischemia Reperfusion (I/R) Therapeutic and Prophylactic Settings
Six male Wistar Unilever rats were used per experimental group. On induction day, rats were anesthetized with an intraperitoneal injection of Rompun® and Ketavet® before the pupils of the right eyes were dilated with Alcain eye drops and in addition treated with Vigamox® eye drops. The left eye is covered with Bepanthen® eye cream. Under deep anesthesia, the retina and the optic nerve were examined by optical coherence tomography (OCT) as a baseline measurement. The induction was done as the anterior chamber was punctured with a 30 G needle. Through a tube, 0.9% NaCl solution was pumped into the anterior chamber with a pressure 120 mm Hg. The pressure is regulated with a blood pressure cuff. The intraocular pressure (IOP) was elevated for 45 min. The procedure was successful as the eyeballs discolored because of vascular obstruction. After 45 min, the needle was removed, eye cream was put on the right eye and the animal could wake up. Compound (e.g. example 3, formula I-E-R) or its vehicle were orally applied, once daily (QD). The application volume was 5 mL/kg. In prophylactic setting, animals started the treatment 2 days before induction and received an intravenous (IV) bolus of compound (e.g. example 3, formula I-E-R) (i.v. 3 mg/kg in rat plasma) 15 minutes before induction. Treatment continued then after for 21 days. In the therapeutic setting, animals received an intravenous (IV) bolus of compound (e.g. example 3, formula I-E-R) (i.v. 3 mg/kg in rat plasma) 15 minutes after induction. Treatment continued then after for 21 days; once daily (3 mg/kg, PO QD). At day 7 and day 21, the retina and the optic nerve were examined by optical coherence tomography (OCT). The retinal function was evaluated by the ERG (Electroretinography) at day 7 and day 21 post induction according to the method disclosed in McCulloch et al., 2015. Functional read-out of retinal electrical signal in response to light stimulation “b-wave amplitude (μv)” represents inner retinal function. Then the eyes were collected for histopathology and preserved in Davidson's solution. The eye sections were stained with hematoxylin and eosin staining. The total retinal thickness and the inner plexiform layer thickness was measured at 1000 μm distances from the optic nerve using (Microscope Software ZEN, Zeiss, Germany).
Neuroprotection: The inner plexiform layer (IPL) functions as a relay station for the vertical-information-carrying nerve cells, the bipolar cells, to connect the photoreceptor cells to the ganglion cells. The IPL layer thickness was measured in histological sections stained with (H&E).

Q: How did the EC50 [1] turn out when `CC(C)CN1CCN(c2ccc(-c3ccc(Cl)cc3N3CCC[C@@H](n4ncc(C(=O)O)c4C(F)F)C3)cc2)CC1` [Example 3, 1-{1-[4-Chloro-4′-(4-isobutylpiperazin-1-yl)[biphenyl]-2-yl]piperidin-3-yl}-5-(difluoromethyl)-1H-pyrazole-4-carboxylic acid hydrochloride] was run?
A: 2.7 nM

Q: And the “MEC (minimum effective concentration)” value ([1]; hydrochloride)?
A: 0.6 nM

Q: What about the “retinal structure and photoreceptors integrity (histology)” value ([2]; I/R rats vs IR only) of the same compound?
A: the retinal structure was preserved, and the photoreceptors integrity was intact

Q: And the “retinal thickness (histology)” value ([2]; I/R rats, 3 mg/kg PO QD for 21 days plus i.v. 3 mg/kg bolus, at 3 weeks vs IR only)?
A: significantly higher retinal thickness compared to IR only animals

Q: And the “retinal structure / mean total retinal thickness by optical coherence tomography (OCT)” value ([2]; I/R rats, 1- and 3-weeks post induction vs IR only)?
A: protect retinal structure

Q: And the “retinal function measured by ERG (b wave amplitude)” value ([2]; I/R rats, one week and 3 weeks post induction vs IR, hydrochloride)?
A: significant difference in retinal function; also recorded: reduces ischemia induced retinal dysfunction

Q: And the “IPL (inner plexiform layer) thickness” value ([2]; I/R rats, prophylactic setting (FIG. 4A))?
A: preserved

Q: What about the “IPL (inner plexiform layer) thickness” value ([2]; I/R rats, therapeutic setting (FIG. 4B)) of the same compound?
A: preserved
